The text below walks through data of patent US20180273538A1, “PYRROLO[2,3-d]PYRIMIDINE DERIVATIVES, A PROCESS FOR THEIR PREPARATION AND PHARMACEUTICAL COMPOSITIONS CONTAINING THEM” (LES LABORATOIRES SERVIER, priority 2015, published 2018).

The target of experiment [1] is T1, His-TEV-DYRK1A Kinase domain (aa127-485) (Homo sapiens, UniProt Q13627).
T1 construct: His-TEV-DYRK1A Kinase domain (aa127-485); His (N); TEV cleavage site (N)
The experiment in a line: Kinase ADP assay (ADP Hunter Plus). The experiment is classed as biochemical.

In the next experiment the target is T2, phospho-Ser520-DYRK1A (Homo sapiens, UniProt Q13627).
T2 construct: full-length, wild-type human DYRK1A (NM_001396) with an HA tag; expressed in transfected cells; host or cells: human U2-OS osteosarcoma cells, pcDNA3.1 plasmid
The experiment in a line: Cellular DYRK1A autophosphorylation assay in U2-OS cells. The class given is cell-based. The conditions noted are these: 5 hours exposure, read-out: IC50 (μM) P-Ser520-Dyrk1A-Cell assay.

As to `Cc1nc(NCc2cccc3c2OCO3)c2c(-c3ccnc(N)c3)c[nH]c2n1` [Example 127, 5-(2-aminopyridin-4-yl)-N-(1,3-benzodioxol-4-ylmethyl)-2-methyl-7H-pyrrolo[2,3-d]pyrimidin-4-amine], the values for the half-maximal inhibitory concentration (IC50) (in experiment [1]; on phospho-Ser520-DYRK1A) were 0.011 µM and 0.0169 µM, respectively.

Turning to `Cc1nc(NCc2cccc3c2OCO3)c2c(-c3cc(N)nc(N)c3)c[nH]c2n1` [Example 128, 4-{4-[(1,3-benzodioxol-4-ylmethyl)amino]-2-methyl-7H-pyrrolo[2,3-d]pyrimidin-5-yl}pyridine-2,6-diamine], the results for the half-inhibitory concentration (IC50) (in experiment [1]; at phospho-Ser520-DYRK1A) were 0.009 µM and 0.0093 µM, respectively.

As for `COc1cccc(C(F)(F)F)c1CNc1nc(C)nc2[nH]cc(-c3ccncc3)c12` [Example 145, N-[2-methoxy-6-(trifluoromethyl)benzyl]-2-methyl-5-(pyridin-4-yl)-7H-pyrrolo[2,3-d]pyrimidin-4-amine], the IC50 in experiment [1] is 0.042 µM; on phospho-Ser520-DYRK1A, 0.471 µM.

`Nc1cc(-c2c[nH]c3nc(C#CC4CC4)nc(NCc4c(F)cccc4F)c23)ccn1` [Example 152, 5-(2-aminopyridin-4-yl)-2-(cyclopropylethynyl)-N-(2,6-difluorobenzyl)-7H-pyrrolo[2,3-d]pyrimidin-4-amine]: the figures for the half-maximal inhibitory concentration (IC50) (in experiment [1]; at phospho-Ser520-DYRK1A) were 0.012 µM and 0.0101 µM, respectively.

For the molecule `Nc1cc(-c2c[nH]c3nc(C#CC4CC4)nc(-c4ccc5c(c4)OCO5)c23)ccn1` [Example 153, 4-[4-(1,3-benzodioxol-5-yl)-2-(cyclopropylethynyl)-7H-pyrrolo[2,3-d]pyrimidin-5-yl]pyridin-2-amine], the half-maximal inhibitory concentration (IC50) in experiment [1] was determined as 0.011 µM; at phospho-Ser520-DYRK1A, 0.0146 µM.

For the molecule `Nc1cc(-c2c[nH]c3nc(C#CC4CC4)nc(-c4ccc5c(c4)OCO5)c23)cc(N)n1` [Example 154, 4-[4-(1,3-benzodioxol-5-yl)-2-(cyclopropylethynyl)-7H-pyrrolo[2,3-d]pyrimidin-5-yl]pyridine-2,6-diamine], the IC50 was determined as 0.013 µM in experiment [1] and 0.053 µM on phospho-Ser520-DYRK1A.

As for `Cc1nc(/C=C/c2ccccc2)c2c(-c3ccnc(N)c3)c[nH]c2n1` [Example 159], the values for the IC50 (in experiment [1]; at phospho-Ser520-DYRK1A) were 0.012 µM and 0.0187 µM, respectively.

Turning to `Cc1nc(-c2ccc3c(c2)OC(F)(F)O3)c2c(-c3ccnc(N)c3)c[nH]c2n1` [Example 164, 4-[4-(2,2-difluoro-1,3-benzodioxol-5-yl)-2-methyl-7H-pyrrolo[2,3-d]pyrimidin-5-yl]pyridin-2-amine], the IC50 stood at 0.015 µM in experiment [1] and 0.0883 µM on phospho-Ser520-DYRK1A.

In the case of `Cc1nc(-c2cccc(OC(F)(F)F)c2)c2c(-c3ccnc(N)c3)c[nH]c2n1` [Example 181], the results for the IC50 (in experiment [1]; on phospho-Ser520-DYRK1A) were 0.019 µM and 0.15 µM, respectively.

For the molecule `Cc1nc(-c2cc3ccccc3s2)c2c(-c3ccnc(N)c3)c[nH]c2n1` [Example 182], the IC50 in experiment [1] was 0.013 µM; on phospho-Ser520-DYRK1A it was 0.0142 µM.

Turning to `Cc1nc(-c2cc3ccccc3o2)c2c(-c3ccnc(N)c3)c[nH]c2n1` [Example 183], the half-maximal inhibitory concentration (IC50) is 0.006 µM in experiment [1] and 0.029 µM on phospho-Ser520-DYRK1A.

In the case of `Cc1ccc2sc(-c3nc(C)nc4[nH]cc(-c5ccnc(N)c5)c34)cc2c1` [Example 184], the IC50 in experiment [1] was 0.012 µM; at phospho-Ser520-DYRK1A it was 0.0319 µM.

`Cc1nc(-c2cc(F)c3c(c2)OCO3)c2c(-c3ccnc(N)c3)c[nH]c2n1` [Example 191]: the values for the half-inhibitory concentration (IC50) (in experiment [1]; on phospho-Ser520-DYRK1A) were 0.006 µM and 0.0443 µM, respectively.

For `Cc1nc(-c2ccc3c(c2)OCO3)c2c(-c3cc(N)nc(N)c3)c[nH]c2n1` [Example 192], the half-maximal inhibitory concentration (IC50) in experiment [1] turned out to be 0.008 µM; on phospho-Ser520-DYRK1A, 0.048 µM.

With `Cc1nc(C#Cc2ccccc2F)c2c(-c3ccnc(N)c3)c[nH]c2n1` [Example 194], the IC50 in experiment [1] came out at 0.007 µM; at phospho-Ser520-DYRK1A it was 0.017 µM.

`Cc1nc(-c2ccc3c(c2)CCCC3)c2c(-c3ccnc(N)c3)c[nH]c2n1` [Example 195]: the IC50 is 0.008 µM in experiment [1] and 0.0071 µM at phospho-Ser520-DYRK1A.

`Cc1nc(C#CC2CC2)c2c(-c3cc(N)nc(N)c3)c[nH]c2n1` [Example 196]: the half-maximal inhibitory concentration (IC50) in experiment [1] worked out at 0.023 µM; at phospho-Ser520-DYRK1A, 0.172 µM.

In the case of `Cc1nc(C#CC2CC2)c2c(-c3ccnc(N)c3)c[nH]c2n1` [Example 198, 4-[4-(cyclopropylethynyl)-2-methyl-7H-pyrrolo[2,3-d]pyrimidin-5-yl]pyridin-2-amine], the IC50 in experiment [1] worked out at 0.017 µM; on phospho-Ser520-DYRK1A it was 0.119 µM.

As to `Cc1nc(NCc2cccc3c2OCO3)c2c(-c3ccnc(N)n3)c[nH]c2n1` [Example 208, 5-(2-aminopyrimidin-4-yl)-N-(1,3-benzodioxol-4-ylmethyl)-2-methyl-7H-pyrrolo[2,3-d]pyrimidin-4-amine], the values for the half-maximal inhibitory concentration (IC50) (in experiment [1]; on phospho-Ser520-DYRK1A) were 0.01 µM and 0.0041 µM, respectively.

Regarding `Cc1nc(-c2ccc3c(c2)OCO3)c2c(-c3ccnc(N)n3)c[nH]c2n1` [Example 209, 4-[4-(1,3-benzodioxol-5-yl)-2-methyl-7H-pyrrolo[2,3-d]pyrimidin-5-yl]pyrimidin-2-amine], the half-inhibitory concentration (IC50) stood at 0.032 µM in experiment [1] and 0.157 µM on phospho-Ser520-DYRK1A.

With `Nc1cc(-c2c[nH]c3nc(C#CC4CC4)cc(-c4ccc5c(c4)OCCO5)c23)ccn1` [Example 215, 4-[6-(cyclopropylethynyl)-4-(2,3-dihydro-1,4-benzodioxin-6-yl)-1H-pyrrolo[2,3-b]pyridin-3-yl]pyridin-2-amine], the half-maximal inhibitory concentration (IC50) in experiment [1] amounted to 0.019 µM; on phospho-Ser520-DYRK1A, 0.103 µM.

In the case of `Nc1cc(-c2c[nH]c3nc(C#CC4CC4)cc(-c4ccc5c(c4)OCO5)c23)cc(N)n1` [Example 218, 4-[4-(1,3-benzodioxol-5-yl)-6-(cyclopropylethynyl)-1H-pyrrolo[2,3-b]pyridin-3-yl]pyridine-2,6-diamine], the IC50 was found to be 0.015 µM in experiment [1] and 0.0289 µM on phospho-Ser520-DYRK1A.

Turning to `Nc1cc(-c2c[nH]c3nc(C#CC4CC4)cc(-c4ccc5c(c4)OCO5)c23)ccn1` [Example 219, 4-[4-(1,3-benzodioxol-5-yl)-6-(cyclopropylethynyl)-1H-pyrrolo[2,3-b]pyridin-3-yl]pyridin-2-amine], the IC50 was 0.019 µM in experiment [1] and 0.0325 µM at phospho-Ser520-DYRK1A.

`C#Cc1cc(-c2ccc3c(c2)OCO3)c2c(-c3ccnc(N)c3)c[nH]c2n1` [Example 220, 4-[4-(1,3-benzodioxol-5-yl)-6-ethynyl-1H-pyrrolo[2,3-b]pyridin-3-yl]pyridin-2-amine]: the IC50 was 0.034 µM in experiment [1] and 0.193 µM at phospho-Ser520-DYRK1A.

Take `C#Cc1cc(-c2ccc3c(c2)OCO3)c2c(-c3cc(N)nc(N)c3)c[nH]c2n1` [Example 221, 4-[4-(1,3-benzodioxol-5-yl)-6-ethynyl-1H-pyrrolo[2,3-b]pyridin-3-yl]pyridine-2,6-diamine]: the 50% inhibitory concentration (IC50) stood at 0.016 µM in experiment [1] and 0.132 µM at phospho-Ser520-DYRK1A.

On to `Cc1cc(-c2ccc3c(c2)OCO3)c2c(-c3ccnc(N)c3)c[nH]c2n1` [Example 222, 4-[4-(1,3-benzodioxol-5-yl)-6-methyl-1H-pyrrolo[2,3-b]pyridin-3-yl]pyridin-2-amine], for which the half-maximal inhibitory concentration (IC50) came out at 0.008 µM in experiment [1] and 0.0442 µM on phospho-Ser520-DYRK1A.

Take `N#Cc1cc(-c2ccc3c(c2)OCO3)c2c(-c3cc(N)nc(N)c3)c[nH]c2n1` [Example 224, 4-(1,3-benzodioxol-5-yl)-3-(2,6-diaminopyridin-4-yl)-1H-pyrrolo[2,3-b]pyridine-6-carbonitrile]: the concentration for half-maximal inhibition (IC50) worked out at 0.03 µM in experiment [1] and 0.225 µM on phospho-Ser520-DYRK1A.

The IC50 is the concentration at which inhibition is half-maximal.
